# Read-outs that look alike come from different tables or passages of the source.
# How the values were obtained:
# [1] = molecular target: T1, baculovirus-expressed ALK (Homo sapiens, UniProt Q9UM73); assay: ALK Kinase Assay (ELISA-type, time-resolved fluorescence); type: biochemical
# T1 construct: host or cells: baculovirus expression system
# Procedure, shortened: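 Substrate coating: phospholipase C-γ, 10 μg/mL in TBS. Kinase step: 30 ng/ml ALK, 15 min, 37° C. Detection and analysis: Eu-N1 PT66 antibody, with IC50 fitted as a sigmoidal variable-slope dose-response curve.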
# [2] = molecular target: T2, c-Met (cytoplasmic domain) (Homo sapiens, UniProt P08581); assay: c-Met Kinase Assay (same methods as for ALK, with modifications); type: biochemical
# T2 construct: 10 ng/mL c-Met (cytoplasmic domain, Invitrogen Corporation #PV3143); purchased Invitrogen Corporation PV3143
# Procedure, shortened: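 This plate-based kinase format uses immobilized phospholipase C-γ as substrate, phosphorylated by c-Met cytoplasmic domain (10 ng/mL) at 37° C for 15 minutes.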
# [3] = 1 μM ATP (Km level), 30 ng/ml ALK, 37° C., 15 minutes, read-out: ALK Activity (ALK kinase inhibition, IC50 class)
# [4] = 1 μM ATP (Km level), 10 ng/mL c-Met, read-out: cMet Activity (c-Met kinase inhibition, IC50 class)
# [5] = ALK kinase inhibition, 1 μM ATP, read-out: ALK Activity
# [6] = c-Met kinase inhibition, 1 μM ATP, read-out: cMet Activity
# [7] = ALK kinase inhibition, 1 μM ATP (Km level), read-out: ALK Activity
# [8] = c-Met kinase inhibition, 1 μM ATP (Km level), read-out: cMet Activity
# [9] = 1 μM ATP (Km level), read-out: ALK Activity (ALK Kinase Inhibition, IC50)
# [10] = 1 μM ATP (Km level), read-out: cMet Activity (c-Met Kinase Inhibition, IC50)
# T2 sequence (P08581 956-1390 limits assumed): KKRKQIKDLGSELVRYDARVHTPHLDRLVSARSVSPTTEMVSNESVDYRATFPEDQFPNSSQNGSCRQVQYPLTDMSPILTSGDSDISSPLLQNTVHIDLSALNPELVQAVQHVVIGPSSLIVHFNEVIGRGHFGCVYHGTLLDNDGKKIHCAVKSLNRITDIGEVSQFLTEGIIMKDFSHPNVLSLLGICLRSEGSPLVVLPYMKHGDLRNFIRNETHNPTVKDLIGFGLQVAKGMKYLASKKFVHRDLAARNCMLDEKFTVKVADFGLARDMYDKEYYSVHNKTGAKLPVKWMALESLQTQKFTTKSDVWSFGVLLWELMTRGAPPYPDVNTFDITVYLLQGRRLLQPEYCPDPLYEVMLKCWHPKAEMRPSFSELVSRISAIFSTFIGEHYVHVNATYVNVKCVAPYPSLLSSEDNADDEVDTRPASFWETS
# T1 sequence (Q9UM73 19-1620): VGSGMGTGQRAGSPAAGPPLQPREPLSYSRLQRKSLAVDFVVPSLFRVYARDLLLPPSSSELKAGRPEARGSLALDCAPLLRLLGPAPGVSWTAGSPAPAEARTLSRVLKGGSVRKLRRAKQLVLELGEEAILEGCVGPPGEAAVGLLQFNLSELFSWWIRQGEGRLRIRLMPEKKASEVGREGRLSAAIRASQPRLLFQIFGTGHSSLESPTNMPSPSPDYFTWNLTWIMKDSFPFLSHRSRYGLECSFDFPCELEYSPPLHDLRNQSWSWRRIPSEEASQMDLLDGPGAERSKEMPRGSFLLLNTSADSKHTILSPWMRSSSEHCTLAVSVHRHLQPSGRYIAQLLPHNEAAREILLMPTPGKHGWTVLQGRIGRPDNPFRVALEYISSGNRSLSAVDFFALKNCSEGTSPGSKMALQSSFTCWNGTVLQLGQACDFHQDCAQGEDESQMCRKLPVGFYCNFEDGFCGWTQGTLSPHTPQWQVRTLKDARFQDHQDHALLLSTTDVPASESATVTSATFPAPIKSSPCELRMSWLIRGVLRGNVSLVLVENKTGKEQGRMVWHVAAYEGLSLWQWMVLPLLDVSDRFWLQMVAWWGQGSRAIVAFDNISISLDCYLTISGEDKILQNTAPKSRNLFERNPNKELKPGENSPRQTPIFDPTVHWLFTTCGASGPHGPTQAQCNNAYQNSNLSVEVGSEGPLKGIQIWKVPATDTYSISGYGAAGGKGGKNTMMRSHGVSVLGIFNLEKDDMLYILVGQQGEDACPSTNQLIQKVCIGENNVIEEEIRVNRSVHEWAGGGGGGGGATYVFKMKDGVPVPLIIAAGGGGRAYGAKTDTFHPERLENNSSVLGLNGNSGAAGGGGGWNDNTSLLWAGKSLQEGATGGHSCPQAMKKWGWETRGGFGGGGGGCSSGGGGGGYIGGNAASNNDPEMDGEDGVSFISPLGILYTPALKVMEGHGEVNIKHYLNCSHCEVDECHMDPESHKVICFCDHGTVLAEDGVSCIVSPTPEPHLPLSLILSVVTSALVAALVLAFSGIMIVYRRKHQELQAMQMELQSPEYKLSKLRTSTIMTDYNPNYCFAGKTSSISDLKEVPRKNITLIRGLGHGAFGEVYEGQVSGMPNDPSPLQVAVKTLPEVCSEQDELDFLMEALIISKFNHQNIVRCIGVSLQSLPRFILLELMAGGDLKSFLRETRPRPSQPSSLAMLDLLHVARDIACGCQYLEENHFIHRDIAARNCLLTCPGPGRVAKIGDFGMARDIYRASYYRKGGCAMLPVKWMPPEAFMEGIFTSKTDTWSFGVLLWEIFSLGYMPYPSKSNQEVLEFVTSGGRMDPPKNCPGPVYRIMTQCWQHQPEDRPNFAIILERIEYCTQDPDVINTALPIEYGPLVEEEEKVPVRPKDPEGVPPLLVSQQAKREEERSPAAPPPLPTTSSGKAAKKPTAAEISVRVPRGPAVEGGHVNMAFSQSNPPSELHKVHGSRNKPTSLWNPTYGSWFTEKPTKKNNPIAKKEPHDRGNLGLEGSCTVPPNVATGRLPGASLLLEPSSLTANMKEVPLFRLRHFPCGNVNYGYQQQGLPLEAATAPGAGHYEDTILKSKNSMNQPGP
"IC50 [1, 5] [nM]","IC50 [2, 6] [nM]","IC50 [1, 7] [nM]","IC50 [2, 8] [nM]",Compound,also measured
,,,,"COc1cc2c(cc1Nc1ncc(Cl)c(Nc3ccccc3S(=O)(=O)N3CCCC3)n1)CCN(CC(=O)N(C)C)CC2 [Example 1181, 2-(7-{5-Chloro-4-[2-(pyrrolidine-1-sulfonyl)-phenylamino]-pyrimidin-2-ylamino}-8-methoxy-1,2,4,5-tetrahydro-benzo[d]azepin-3-yl)-N,N-dimethyl-acetamide]","IC50 [1, 3]: < 100 nM; IC50 [2, 4]: 1000 to 10000 nM"
100 to 1000,< 100,,,"CCN1C(=O)C(NC(=O)CN(C)C)CCc2ccc(Nc3ncc(Cl)c(Nc4c(F)cccc4C(=O)NC)n3)cc21 (stereo not shown) [Example 1496, 2-{5-Chloro-2-[3-(2-dimethylamino-acetylamino)-1-ethyl-2-oxo-2,3,4,5-tetrahydro-1H-benzo[b]azepin-8-ylamino]-pyrimidin-4-ylamino}-3-fluoro-N-methyl-benzamide]",
,,< 100,100 to 1000,"Cn1ccnc1-c1ccccc1Nc1nc(Nc2ccc3c(c2)C(C)(C)CCC(=O)N3)ncc1Cl [Example 397, 7-{5-Chloro-4-[2-(1-methyl-1H-imidazol-2-yl)-phenylamino]-pyrimidin-2-ylamino}-5,5-dimethyl-1,3,4,5-tetrahydro-benzo[b]azepin-2-one]",
1000 to 10000,> 10000,,,"COCCN1CCc2ccc(Nc3ncc(Cl)c(Nc4ccccc4OCCN4CCOCC4)n3)cc2CC1 [Example 1466, 5-Chloro-N*2*-[3-(2-methoxy-ethyl)-2,3,4,5-tetrahydro-1H-enzo[d]azepin-7-yl]-N*4*-[2-(2-morpholin-4-yl-ethoxy)-phenyl]-pyrimidine-2,4-diamine]",
,,,,"COc1cc(N2CCOCC2)ccc1Nc1nc(Nc2ccc3c(c2)CCC(NCC(F)F)CC3)ncc1Cl (stereo not shown) [Example 659, 5-Chloro-N*2*-[7-(2,2-difluoro-ethylamino)-6,7,8,9-tetrahydro-5H-benzocyclohepten-2-yl]-N*4*-(2-methoxy-4-morpholin-4-yl-phenyl)-pyrimidine-2,4-diamine]","IC50 [1, 9]: < 100 nM; IC50 [2, 10]: > 10000 nM"
< 100,> 10000,,,"COc1cc2c(cc1Nc1ncc(Cl)c(N[C@@H]3CCCC[C@H]3NS(C)(=O)=O)n1)CCN(CC(=O)N1CCOCC1)CC2 [Example 1528, N-((1R,2R)-2-{5-Chloro-2-[8-methoxy-3-(2-morpholin-4-yl-2-oxo-ethyl)-2,3,4,5-tetrahydro-1H-3-benzazepin-7-ylamino]-pyrimidin-4-ylamino}-cyclohexyl)-methanesulfonamide]",
,,< 100,< 100,"CNC(=O)c1ccccc1Nc1nc(Nc2ccc3c(c2)CCN(C[C@H](O)C(F)(F)F)CC3)ncc1Cl [Example 328, 2-{5-Chloro-2-[3-((S)-3,3,3-trifluoro-2-hydroxy-propyl)-2,3,4,5-tetrahydro-1H-benzo[d]azepin-7-ylamino]-pyrimidin-4-ylamino}-N-methyl-benzamide]",
1000 to 10000,100 to 1000,,,"CNC(=O)c1ccccc1Nc1nc(Nc2ccc3c(c2)CC(=O)N(C)CC3)ncc1Cl [Example 1815, 2-[5-Chloro-2-(3-methyl-4-oxo-2,3,4,5-tetrahydro-1H-benzo[d]azepin-7-ylamino)-pyrimidin-4-ylamino]-N-methylbenzamide]",
,,,,"C#CCNC(=O)c1cccc(F)c1Nc1nc(Nc2ccc3c(c2)NC(=O)C(NC(=O)COC)CC3(C)C)ncc1Cl (stereo not shown) [Example 1293, 2-{5-Chloro-2-[3-(2-methoxy-acetylamino)-5,5-dimethyl-2-oxo-2,3,4,5-tetrahydro-1H-1-benzazepin-8-ylamino]-pyrimidin-4-ylamino}-3-fluoro-N-prop-2-ynyl-benzamide]","IC50 [1, 3]: < 100 nM; IC50 [2, 4]: < 100 nM"
1000 to 10000,1000 to 10000,,,"CC(=O)NCCOc1cccc(F)c1Nc1nc(Nc2ccc3c(c2)CCOC(=O)N3C)ncc1Cl [Example 1782, N-(2-{2-[5-Chloro-2-(5-methyl-6-oxo-5,6,8,9-tetrahydro-7-oxa-5-aza-benzocyclohepten-2-ylamino)-pyrimidin-4-ylamino]-3-fluoro-phenoxy}-ethyl)-acetamide]",
< 100,> 10000,,,"COc1cc2c(cc1Nc1ncc(C(F)(F)F)c(Nc3ccc(N4CCOCC4)cc3OC)n1)CCOC(=O)N2C [Example 1514, 3-Methoxy-2-[4-(2-methoxy-4-morpholin-4-yl-phenylamino)-5-trifluoromethyl-pyrimidin-2-ylamino]-5-methyl-8,9-dihydro-5H-7-oxa-5-aza-benzocyclohepten-6-one]",
,,1000 to 10000,< 100,"CNC(=O)c1cccc(Cl)c1Nc1nc(Nc2ccc3c(c2)CCCC(=O)N3C)ncc1Cl [Example 352, 3-Chloro-2-[5-chloro-2-(1-methyl-2-oxo-2,3,4,5-tetrahydro-1H-benzo[b]azepin-7-ylamino)-pyrimidin-4-ylamino]-N-methyl-benzamide]",
,,,,"COc1cc2c(cc1Nc1ncc(Cl)c(N[C@@H]3CCCC[C@H]3NS(C)(=O)=O)n1)N(C)C(=O)CN(CC1CC1)C2 [Example 746, N-{(1R,2R)-2-[5-Chloro-2-(4-cyclopropylmethyl-7-methoxy-1-methyl-2-oxo-2,3,4,5-tetrahydro-1H-benzo[e][1,4]diazepin-8-ylamino)-pyrimidin-4-ylamino]-cyclohexyl}-methanesulfonamide]","IC50 [1, 9]: 100 to 1000 nM; IC50 [2, 10]: > 10000 nM"
100 to 1000,100 to 1000,,,"CNC(=O)c1cccc(F)c1Nc1nc(Nc2ccc3c(c2)N(C(=O)CN2CCCC2)CCCC3(C)C)ncc1Cl [Example 1603, 2-{5-Chloro-2-[5,5-dimethyl-1-(2-pyrrolidin-1-yl-acetyl)-2,3,4,5-tetrahydro-1H-benzo[b]azepin-8-ylamino]-pyrimidin-4-ylamino}-3-fluoro-N-methyl-benzamide]",
,,,,"COc1cc2c(cc1Nc1ncc(Cl)c(Nc3ccccc3S(C)(=O)=O)n1)CCN(CC(=O)N(C)C)CC2 [Example 1142, 2-{7-[5-Chloro-4-(2-methanesulfonyl-phenylamino)-pyrimidin-2-ylamino]-8-methoxy-1,2,4,5-tetrahydro-benzo[d]azepin-3-yl}-N,N-dimethyl-acetamide]","IC50 [1, 3]: < 100 nM; IC50 [2, 4]: 1000 to 10000 nM"
,,,,"CCCCNC(=O)c1ccccc1Nc1nc(Nc2cc3c(cc2OC)CCN(CCOC)CC3)ncc1Cl [Example 1031, N-Butyl-2-{5-chloro-2-[8-methoxy-3-(2-methoxy-ethyl)-2,3,4,5-tetrahydro-1H-benzo[d]azepin-7-ylamino]-pyrimidin-4-ylamino}-benzamide]","IC50 [1, 3]: < 100 nM; IC50 [2, 4]: > 10000 nM"
,,< 100,> 10000,"CCN1C(=O)CCCc2c1ccc(Nc1ncc(Cl)c(N[C@H]3CCC[C@H]3C(=O)NC)n1)c2OC (relative stereo) [Example 373, cis-2-[5-Chloro-2-(1-ethyl-6-methoxy-2-oxo-2,3,4,5-tetrahydro-1H-benzo[b]azepin-7-ylamino)-pyrimidin-4-ylamino]-cyclopentanecarboxylic acid methylamide]",
,,< 100,< 100,"CNC(=O)c1ccccc1Nc1nc(Nc2ccc3c(c2)C(=O)NCCO3)ncc1Cl [Example 1880, 2-[5-Chloro-2-(5-oxo-2,3,4,5-tetrahydro-benzo[f][1,4]oxazepin-7-ylamino)-pyrimidin-4-ylamino]-N-methyl-benzamide]",
< 100,100 to 1000,,,"COCCN1CCc2ccc(Nc3ncc(Cl)c(Nc4ccccc4S(=O)(=O)C(C)C)n3)cc2CC1 [Example 1685, 5-Chloro-N*2*-[3-(2-methoxy-ethyl)-2,3,4,5-tetrahydro-1H-benzo[d]azepin-7-yl]-N*4*-[2-(propane-2-sulfonyl)-phenyl]-pyrimidine-2,4-diamine]",
< 100,1000 to 10000,,,"CNC(=O)c1ccccc1Nc1nc(Nc2cc3c(cc2OC)CCN(CCN2CCOCC2)CC3)ncc1Cl [Example 1524, 2-{5-Chloro-2-[8-methoxy-3-(2-morpholin-4-yl-ethyl)-2,3,4,5-tetrahydro-1H-3-benzazepin-7-ylamino]-pyrimidin-4-ylamino}-N-methyl-benzamide]",
,,< 100,< 100,"CNC(=O)c1ccccc1Nc1nc(Nc2ccc3c(c2)C2CN(S(C)(=O)=O)CC3O2)ncc1Cl (single isomer, unassigned) [Example 183, 2-[5-Chloro-2-(10-methanesulfonyl-12-oxa-10-aza-tricyclo[6.3.1.0*2,7*]dodeca-2(7),3,5-trien-4-ylamino)-pyrimidin-4-ylamino]-N-methyl-benzamide]",

Compound,"IC50 [1, 5] [nM]","IC50 [2, 6] [nM]","IC50 [1, 7] [nM]","IC50 [2, 8] [nM]",also measured
"CCOC(=O)N1C2CCC1c1cc(Nc3ncc(Cl)c(Nc4ccccc4C(=O)NC)n3)c(Cl)cc1C2 (stereo not shown) [Example 74, 5-Chloro-4-[5-chloro-4-(2-methylcarbamoyl-phenylamino)-pyrimidin-2-ylamino]-12-aza-tricyclo[7.2.1.0*2,7*]dodeca-2(7),3,5-triene-12-carboxylic acid ethyl ester]",,,100 to 1000,> 10000,
"CNS(=O)(=O)c1ccccc1Nc1nc(Nc2ccc3c(c2)C2CCC3CN(C(C)C)C2)ncc1Cl (stereo not shown) [Example 274, 2-[5-Chloro-2-(10-isopropyl-10-aza-tricyclo[6.3.2.0*2,7*]trideca-2,4,6-trien-4-ylamino)-pyrimidin-4-ylamino]-N-methyl-benzenesulfonamide]",,,< 100,< 100,

# — patent US8148391B2 (Cephalon, Inc., priority 2006, dated 2012)
